Test results published in patent publication US8865734B2 (priority 2010, dated 2014).
In brackets after ≈: the same amount, converted by molar mass.

Columns and labels:
[1] = test system: M. tuberculosis inside the host macrophage; assay: QIM: Quantification of Intracellular Mycobacteria (intracellular growth assay, phenotypic cell-based); details: Mycobacterium tuberculosis; MIC, 80% bacterial growth inhibition; intracellular growth; read-out: QIM
Source text: Accordingly, a phenotypic cell-based assay, suitable for high throughput screening, which allows for the search of compounds that would prevent M. tuberculosis multiplication inside the host macrophage was utilized (WO2010003533A2), overcoming many of the numerous and burdensome steps involved in previous methodologies (Arain et al., 1996).
A 120,000 small molecule compound library was screened using a validated phenotypic cell-based assay (WO2010003533A2). Active compounds from the primary screen were confirmed via dose response in the intracellular (QIM) assay and an in vitro (QUM) assay, wherein the abbreviation “QIM” stands for Quantification of Intracellular Mycobacteria and the abbreviation “QUM” stands for Quantification of in vitro grown Mycobacteria. […] The MIC is the minimum concentration of compound required to obtain 80% bacterial growth inhibition.
The imidazopyridine compounds (scaffolds Ia and Ib; see Table 1) underwent derivatization according to the methods outlined below (Schemes 1-13). Resulting derivatives were examined for inhibitory activity (MIC) using the assays described above (Example 1) and the results are summarized in Table 1.

[2] = test system: in vitro grown Mycobacteria (M. tuberculosis); assay: QUM: Quantification of in vitro grown Mycobacteria (in vitro growth fluorescence assay); type: cell-based; details: Mycobacterium tuberculosis; MIC, 80% bacterial growth inhibition; in vitro growth; read-out: QUM
Outline: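 Mycobacterium tuberculosis grown in vitro was quantified by fluorescence across compound dose responses. MIC is defined as the minimum concentration producing 80% growth inhibition.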

| SMILES | MIC [1] [µM] | MIC [2] [µM] |
| --- | --- | --- |
| CCc1nc2cc(Cl)ccn2c1C(=O)NCc1ccc(-c2ccc(OC)cn2)cc1 [Compound 135, 7-Chloro-2-ethyl-N-(4-(5-methoxypyridin-2-yl)benzyl)imidazo[1,2-a]pyridine-3-carboxamide] | < 1 | 1 to 20 (≈ 0.421 to 8.42 µg/mL) |
| CCc1nc2ccc(Cl)cn2c1C(=O)NCc1ccc(-c2cccc(C#N)c2)cc1 [Compound 127, 6-Chloro-N-((3′-cyanobiphenyl-4-yl)methyl)-2-ethylimidazo[1,2-a]pyridine-3-carboxamide] | < 1 | > 20 |
| CCCCCC(=O)NCc1ccc(-c2ccc(CNC(=O)c3c(CC)nc4cc(Cl)ccn34)cc2)cc1 [Compound 184, 7-Chloro-2-ethyl-N-((4′-(hexanamidomethyl)biphenyl-4-yl)methyl)imidazo[1,2-a]pyridine-3-carboxamide] | < 1 | < 1 |
| CCc1nc2cc(Cl)ccn2c1C(=O)NCc1ccc(-c2ccccc2Cl)cc1 [Compound 94, 7-Chloro-N-((2′-chlorobiphenyl-4-yl)methyl)-2-ethylimidazo[1,2-a]pyridine-3-carboxamide] | < 1 | < 1 |
| COc1cccn2c(C(=O)NCc3ccccc3)c(C)nc12 [Compound 41, N-Benzyl-8-methoxy-2-methylimidazo[1,2-a]pyridine-3-carboxamide] | > 20 | > 20 |
| CCc1nc2cc(Cl)ccn2c1C(=O)NCc1ccc2ccccc2c1 [Compound 91, 7-Chloro-2-ethyl-N-(naphthalen-2-ylmethyl)imidazo[1,2-a]pyridine-3-carboxamide] | 1 to 20 (≈ 0.364 to 7.28 µg/mL) | < 1 |
| CCc1nc2cc(Cl)ccn2c1C(=O)NCc1ccc(-c2ccccc2C(F)(F)F)cc1 [Compound 124] | < 1 | 1 to 20 (≈ 0.458 to 9.16 µg/mL) |
| Cc1nc2ccccn2c1C(=O)NCc1ccc(C(=O)O)cc1 [Compound 11, 4-((2-Methylimidazo[1,2-a]pyridine-3-carboxamido)methyl)benzoic acid] | > 20 | > 20 |
| CCc1nc2ccc(Br)cn2c1C(=O)NCc1ccc(Oc2ccc(F)cc2)cc1 [Compound 189, 6-Bromo-2-ethyl-N-(4-(4-fluorophenoxy)benzyl)imidazo[1,2-a]pyridine-3-carboxamide] | < 1 | < 1 |
| Cc1nc2c(C#N)cccn2c1C(=O)NCc1ccccc1 [Compound 42, N-Benzyl-8-cyano-2-methylimidazo[1,2-a]pyridine-3-carboxamide] | > 20 | > 20 |
| CCc1nc2cc(Cl)ccn2c1C(=O)NCc1ccc(-c2cccc(C)c2)cc1 [Compound 97, 7-Chloro-2-ethyl-N-((3′-methylbiphenyl-4-yl)methyl)imidazo[1,2-a]pyridine-3-carboxamide] | < 1 | < 1 |
| CCCC(=O)NCc1ccc(-c2ccc(CNC(=O)c3c(CC)nc4cc(Cl)ccn34)cc2)cc1 [Compound 159, N-((4′-(Butyramidomethyl)biphenyl-4-yl)methyl)-7-chloro-2-ethylimidazo[1,2-a]pyridine-3-carboxamide] | < 1 | < 1 |
| Cc1ccn2c(C(=O)NCc3ccccc3)c(C)nc2c1 [Compound 31, N-Benzyl-2,7-dimethylimidazo[1,2-a]pyridine-3-carboxamide] | < 1 | 1 to 20 (≈ 0.279 to 5.59 µg/mL) |
| CCc1nc2cc(Cl)ccn2c1C(=O)NCc1ccc(C(C)(C)C)cc1 [Compound 92, N-(4-tert-Butylbenzyl)-7-chloro-2-ethylimidazo[1,2-a]pyridine-3-carboxamide] | < 1 | < 1 |
| CCc1nc2cc(Cl)ccn2c1NC(=O)Cc1ccc(-c2ccccc2)cc1 [Compound 143, 2-(Biphenyl-4-yl)-N-(7-chloro-2-ethylimidazo[1,2-a]pyridin-3-yl)acetamide] | < 1 | 1 to 20 (≈ 0.39 to 7.8 µg/mL) |
| Cc1nc2cc(-c3ccccc3)ccn2c1C(=O)O [Compound 3, 2-Methyl-7-phenylimidazo[1,2-a]pyridine-3-carboxylic acid] | > 20 | > 20 |
| CCCNc1ccc(CNC(=O)c2c(CC)nc3cc(Cl)ccn23)cc1 [Compound 106, 7-Chloro-2-ethyl-N-(4-(propylamino)benzyl)imidazo[1,2-a]pyridine-3-carboxamide] | 1 to 20 (≈ 0.371 to 7.42 µg/mL) | < 1 |
| CCc1nc2ccc(Cl)cn2c1C(=O)NCc1ccc2[nH]c(-c3ccc(OC(F)(F)F)cc3)nc2c1 [Compound 204, 6-Chloro-2-ethyl-N-((2-(4-(trifluoromethoxy)phenyl)-1H-benzo[d]imidazol-5-yl)methyl) imidazo[1,2-a]pyridine-3-carboxamide] | > 20 | > 20 |

| SMILES | MIC [1] [µM] | MIC [2] [µM] |
| --- | --- | --- |
| CCc1nc2ccc(Cl)cn2c1C(=O)NCc1ccc(N2CCCCC2)cc1 [Compound 79, 6-Chloro-2-ethyl-N-(4-(piperidin-1-yl)benzyl)imidazo[1,2-a]pyridine-3-carboxamide] | < 1 | < 1 |
| CCc1nc2cc(Cl)ccn2c1C(=O)NCc1ccc(-c2ccccc2C#N)cc1 [Compound 126, 7-Chloro-N-((2′-cyanobiphenyl-4-yl)methyl)-2-ethylimidazo[1,2-a]pyridine-3-carboxamide] | 1 to 20 (≈ 0.415 to 8.3 µg/mL) | < 1 |
| CCc1nc2cc(N3CCNCC3)ccn2c1C(=O)NCc1ccc(C(C)(C)C)cc1 [Compound 145, N-(4-tert-Butylbenzyl)-2-ethyl-7-(piperazin-1-yl)imidazo[1,2-a]pyridine-3-carboxamide] | > 20 | > 20 |
| CCc1nc2ccc(Cl)cn2c1C(=O)NCc1ccc2oc(-c3ccc(OC(F)(F)F)cc3)nc2c1 [Compound 207, 6-Chloro-2-ethyl-N-((2-(4-(trifluoromethoxy)phenyl)benzo[d]oxazol-5-yl)methyl)imidazo[1,2-a]pyridine-3-carboxamide] | < 1 | < 1 |
| CCc1nc2ccc(F)cn2c1C(=O)NCc1ccc(N2CCOCC2)cc1 [Compound 316, 2-Ethyl-6-fluoro-N-(4-morpholinobenzyl)imidazo[1,2-a]pyridine-3-carboxamide] | 1 to 20 (≈ 0.382 to 7.65 µg/mL) | 1 to 20 (≈ 0.382 to 7.65 µg/mL) |
| CCc1nc2ccc(Cl)cn2c1C(=O)NCc1ccc(N2CCC(Oc3ccc(C(F)(F)F)cc3)CC2)cc1 [Compound 164, 6-Chloro-2-ethyl-N-(4-(4-(4-(trifluoromethyl)phenoxy)piperidin-1-yl)benzyl) imidazo[1,2-a]pyridine-3-carboxamide] | < 1 | < 1 |
| CCc1nc2ccc(F)cn2c1C(=O)NCc1ccc(OCc2ccc(OC(F)(F)F)cc2)cc1 [Compound 258, 2-Ethyl-6-fluoro-N-(4-(4-(trifluoromethoxy)benzyloxy)benzyl)imidazo[1,2-a]pyridine-3-carboxamide] | < 1 | < 1 |
| CCc1nc2ccc(Cl)cn2c1C(=O)NCc1ccc(-c2ccccc2Cl)cc1 [Compound 82, 6-Chloro-N-((2′-chlorobiphenyl-4-yl)methyl)-2-ethylimidazo[1,2-a]pyridine-3-carboxamide] | < 1 | < 1 |
| CC(C)(C)c1ccc(CNC(=O)c2c(C(F)(F)F)nc3ccc(Cl)cn23)cc1 [Compound 100, N-(4-tert-Butylbenzyl)-6-chloro-2-(trifluoromethyl)imidazo[1,2-a]pyridine-3-carboxamide] | < 1 | < 1 |
| Cc1nc2ccccn2c1C(=O)NCC1CCN(C(=O)OC(C)(C)C)CC1 [Compound 19, tert-Butyl 4-((2-methylimidazo[1,2-a]pyridine-3-carboxamido)methyl)piperidine-1-carboxylate] | > 20 | > 20 |
| CCc1nc2ccc(Cl)cn2c1C(=O)NCc1ccc(N2CCC(C)CC2)cc1 [Compound 214, 6-Chloro-2-ethyl-N-(4-(4-methylpiperidin-1-yl)benzyl)imidazo[1,2-a]pyridine-3-carboxamide] | < 1 | < 1 |
| CC(C)c1nc2ccccn2c1C(=O)NCc1ccccc1 [Compound 51, N-Benzyl-2-isopropylimidazo[1,2-a]pyridine-3-carboxamide] | > 20 | > 20 |
| CCc1nc2cc(Cl)ccn2c1C(=O)NCc1ccc(-c2ccc(F)cc2)cc1 [Compound 116, 7-Chloro-2-ethyl-N-((4′-fluorobiphenyl-4-yl)methyl)imidazo[1,2-a]pyridine-3-carboxamide] | < 1 | < 1 |
| CCc1nc2ccc(C)cn2c1C(=O)NCc1ccc(Oc2ccccc2)cc1 [Compound 63, 2-Ethyl-6-methyl-N-(4-phenoxybenzyl)imidazo[1,2-a]pyridine-3-carboxamide] | < 1 | < 1 |
| Cc1nc2ccc(-c3ccccc3)cn2c1C(=O)NCc1ccccc1 [Compound 38, N-Benzyl-2-methyl-6-phenylimidazo[1,2-a]pyridine-3-carboxamide] | > 20 | > 20 |
| COC(=O)[C@H](Cc1ccccc1)NC(=O)c1c(C)nc2ccccn12 [Compound 25, (S)-Methyl 2-(2-methylimidazo[1,2-a]pyridine-3-carboxamido)-3-phenylpropanoate] | > 20 | > 20 |
| CCc1nc2cc(Cl)ccn2c1C(=O)NCc1ccc(O)cc1 [Compound 88, 7-Chloro-2-ethyl-N-(4-hydroxybenzyl)imidazo[1,2-a]pyridine-3-carboxamide] | 1 to 20 (≈ 0.33 to 6.6 µg/mL) | 1 to 20 (≈ 0.33 to 6.6 µg/mL) |
